# Measurements reported in US9669016B2, “Antiparasitic effect of Bis[3,5-Bis(Benzylidene)-4-Oxo-1-Piperidinyl]amide Derivatives” (priority 2014, dated 2017).
# Experiments:
# [1] = tested on: L. major metacyclic promastigotes; experiment: Murine model for cutaneous leishmaniasis (footpad infection); type: in vivo, BALB/c mice; settings: 10^5 L. major metacyclic promastigotes, intraperitoneal daily treatment
# Method: (§1) The in vivo experiments were comprised of four groups of five mice each: (1) infected, but not treated [control for the infection—100 μL of DMSO per day, drug diluent]; (2) treated with NC884, NC901 or NC2459, but not infected with the parasites [control for drug toxicity]; (3) infected with the parasites and treated with amphotericin B (8 mg/kg/day) [reference drug; positive control]; and (4) infected with the parasites and treated with NC884, NC901 or NC2459 [experimental group]. Luciferase expressing metacyclic promastigotes L. major (Freidlin V1) were obtained as described previously. Suspensions of 1×10^5 or 1×10^6 parasites per 50 μl of sterile DMEM (endotoxin-free) were injected with a 30G needle into the left hind footpad of BALB/c mice. Two weeks post-infection the compounds were administered once a day by intraperitoneal route, daily for 14 to 17 days. Twice a week, weights were recorded to monitor toxicity and the thickness of the infected footpad and the non-infected footpad was measured with digital calipers to monitor the progression of the disease. The parasitic load also was evaluated through in vivo imaging using luminescence (Kodak Image Station). The mice were injected intra-peritoneally with 150 mg/kg D-luciferin (Sigma, USA) 10 min before imaging, anesthetized with 1-2% isofluorane in oxygen during imaging and the net intensity emitted from the footpad was quantified using the KODAK Image Station software. Parasite burden was expressed as net intensity emitted from L. major infected footpad lesions normalized against the background fluorescence of uninfected mice. The presence/absence of parasites was confirmed by PCR using L. major methionine aminopeptidase (MetAP1) 1 specific primers: 5′-[…]-3′ (SEQ ID NO:1) and 5′-[…]-3′ (SEQ ID NO:2) on cDNA reverse transcribed from total RNA extracted from footpad lysate obtained by macerating footpad tissue fragments in Trizol (Invitrogen Life Technologies, United States) with the gentleMACS™ Dissociator (Miltenyi Biotec GmbH, Germany) following the manufacturer's protocol.
# [2] = Weight and toxicity monitoring in treated infected mice; type: in vivo, BALB/c mice; settings: 10^5 infection experiment, daily IP treatment
# Method: as §1
structure (smiles),measurement,setting,value
"C[C@@H]1[C@H](O)[C@@H](C)/C=C/C=C/C=C/C=C/C=C/C=C/C=C/[C@H](O[C@@H]2O[C@H](C)[C@@H](O)[C@H](N)[C@@H]2O)C[C@@H]2O[C@](O)(C[C@@H](O)C[C@@H](O)[C@H](O)CC[C@@H](O)C[C@@H](O)CC(=O)O[C@H]1C)C[C@H](O)[C@H]2C(=O)O [amphotericin B, reference compound]",footpad swelling,[1],reduced footpad swelling
same,weight loss,[2],much more dramatic loss in weight
